According to patent US20220054535A1, “STRONTIUM BASED COMPOSITIONS AND FORMULATIONS FOR PAIN, PRURITUS, AND INFLAMMATION” (STRONTIUM NEUROGENICS INC., priority 2018, published 2022):

Columns and labels:
TNF-alpha = TNF-alpha (Homo sapiens, UniProt P01375); test: Preliminary investigations on the psoriasis inflammatory/keratinocyte cycle, TNF-alpha
Source text: (§1) The present disclosure is premised on the belief that the psoriatic cycle begins with a triggering event such as trauma, infection, or stress that causes the keratinocytes to become stressed and activates dendritic cells. The dendritic cells release IL-12 and IL-23, which in turn stimulate Th17 and Th1 cells […]. Th17 releases […] which stimulates inflammation. Similarly, Th1 cells release […] which stimulates inflammation. Th1 cells also stimulate keratinocyte division leading to the formation of plaques. The activation of immune cells releases cytokines which also activates keratinocytes. The interaction between the immune system and keratinocyte activation becomes a self-feeding cycle.
(§2) Applicants' preliminary investigations indicate that strontium can break up the inflammatory/keratinocyte cycle of psoriasis, specifically by blocking the IL-17 and TNF-alpha. By targeting and blocking the two main pathways that activated dendritic cells use to trigger a psoriatic episode, strontium has immense potential as a therapeutic for psoriasis.

[1] = Preliminary investigations on post herpetic neuralgia pain; format: in vivo
CICR pathway = conditions: cited from earlier work
HSV1 = test: Preliminary investigations on HSV1 symptoms; format: in vivo
Source text: Without wishing to be bound by any one theory, it is believed that strontium's ability to block NF-Kappa B contributes to minimizing the symptoms associated with an active infection. As mentioned above, HSV 1 and 2 require the activation of NF-Kappa B for de novo virus synthesis. By blocking NF-Kappa B, strontium is essentially stopping the infection at an early stage.

MMP = test: Preliminary data in atopic dermatitis pathways, MMP activity
Source text: Other molecular pathways activated in atopic dermatitis include matrix metalloproteinases (MMPs). MMPs are a family of enzymes capable of breaking down extracellular matrix proteins, including connective tissues.

TLR-4 = TLR-4 (Homo sapiens, UniProt O00206); test: Preliminary data in atopic dermatitis pathways, TLR-4
Sequence of TLR-4 (O00206 24-839, species assumed): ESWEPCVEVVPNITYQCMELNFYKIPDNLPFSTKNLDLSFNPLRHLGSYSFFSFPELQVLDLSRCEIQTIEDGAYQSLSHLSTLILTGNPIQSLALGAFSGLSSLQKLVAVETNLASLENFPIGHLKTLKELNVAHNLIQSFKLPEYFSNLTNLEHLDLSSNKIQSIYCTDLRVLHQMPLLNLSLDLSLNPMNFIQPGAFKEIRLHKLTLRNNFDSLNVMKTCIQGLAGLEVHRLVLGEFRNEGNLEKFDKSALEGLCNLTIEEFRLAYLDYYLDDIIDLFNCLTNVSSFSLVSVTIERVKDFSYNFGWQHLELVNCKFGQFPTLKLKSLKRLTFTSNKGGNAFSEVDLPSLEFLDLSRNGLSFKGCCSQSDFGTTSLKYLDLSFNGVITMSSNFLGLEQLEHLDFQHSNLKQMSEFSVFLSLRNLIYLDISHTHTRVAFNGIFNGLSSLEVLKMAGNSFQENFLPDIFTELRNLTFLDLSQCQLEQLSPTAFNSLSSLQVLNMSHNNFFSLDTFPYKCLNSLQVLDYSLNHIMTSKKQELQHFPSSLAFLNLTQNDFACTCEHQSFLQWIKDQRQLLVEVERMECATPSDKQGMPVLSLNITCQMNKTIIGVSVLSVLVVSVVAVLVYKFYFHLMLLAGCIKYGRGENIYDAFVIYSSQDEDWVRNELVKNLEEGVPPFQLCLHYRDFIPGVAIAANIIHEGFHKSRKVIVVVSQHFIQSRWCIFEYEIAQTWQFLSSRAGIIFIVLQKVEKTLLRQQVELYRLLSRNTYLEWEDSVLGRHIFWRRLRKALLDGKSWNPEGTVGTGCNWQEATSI
Sequence of TLR-4 (Q9Y6Y9 17-160 partner limits assumed, species assumed): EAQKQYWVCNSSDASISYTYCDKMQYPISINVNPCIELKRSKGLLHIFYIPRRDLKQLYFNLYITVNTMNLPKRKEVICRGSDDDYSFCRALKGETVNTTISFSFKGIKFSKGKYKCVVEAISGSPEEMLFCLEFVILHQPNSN
Source text: The present disclosure is premised on the belief that people with atopic dermatitis have higher levels of Staphylococcus aureus on their skin. The higher bacterial levels trigger an immune response via the toll-like receptors, in particular toll-like receptor 4 (TLR-4). The present disclosure is also premised on the belief that continual activation of TLR-4 contributes to the chronic nature of atopic dermatitis.

TCN activation = test: Burning pain and stinging from highly acidic chemical peel (70% glycolic acid, pH 0.6); format: in vivo; conditions: strontium mixed with the acid (70% glycolic acid, pH 0.6)
Method: Nociceptors also have a CaSR that inhibits nociceptor activation when the extracellular concentration of calcium is raised above normal, or if a similar concentration of strontium is administered. […] When strontium is mixed with the acid, burning pain and stinging is suppressed by 80% or more so that any remaining sensory irritation is not bothersome.

IL-17 = molecular target: T1, IL-17 (Homo sapiens, UniProt Q16552); test: Preliminary investigations on the psoriasis inflammatory/keratinocyte cycle, IL-17
T1 sequence (Q16552 24-155): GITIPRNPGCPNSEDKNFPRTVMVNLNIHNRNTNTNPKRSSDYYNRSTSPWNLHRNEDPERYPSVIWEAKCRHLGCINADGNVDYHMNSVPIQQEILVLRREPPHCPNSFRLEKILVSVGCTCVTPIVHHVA
Source text: as §1, §2

[2] = tested on: synchronous neurotransmitter release in response to TCN activation; conditions: strontium substitutes for calcium; cited from earlier work

Sequence of TNF-alpha (P01375 77-233 limits assumed, species assumed): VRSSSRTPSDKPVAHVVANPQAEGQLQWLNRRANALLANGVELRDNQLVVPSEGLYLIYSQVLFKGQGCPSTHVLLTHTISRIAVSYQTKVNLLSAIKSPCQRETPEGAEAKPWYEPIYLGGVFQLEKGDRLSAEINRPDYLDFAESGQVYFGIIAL

[Sr+2] [strontium, Strontium]
blocking of TNF-alpha (TNF-alpha): blocking
pain associated with PHN [1]: can reduce or block
ability to induce CICR relative to calcium (CICR pathway): over a hundred-fold less active than calcium
concentration reached in the ER, greater than calcium (CICR pathway; in the ER): more than 150%
pain, itch, and rash/blister formation associated with HSV1 (HSV1): can reduce and or eliminate
MMP activity (MMP): can block
TLR-4 activity (TLR-4): can block
suppression of burning pain and stinging (TCN activation): ≥ 80%
blocking of IL-17 (IL-17): blocking
reduction of amplitude of synchronous neurotransmitter release [2]: more than 90%
